Numbering of substitutions follows the chain as printed.
What was measured:
Format in all cases: in vitro ADME
UGT1A7*1 = target: T1, UGT1A7*1 (Homo sapiens, UniProt Q9HAW7); test: SN-38 glucuronidation by microsomes of HEK293 cells expressing UGT1A7*1; parameters: key to Function (SN-38G formation versus *1 allele): High: no significant difference in activity compared to *1 allele.; Low: significantly lower SN-38G formation versus *1 allele
T1 construct: expressed in transfected cells
T1 sequence (Q9HAW7 26-530): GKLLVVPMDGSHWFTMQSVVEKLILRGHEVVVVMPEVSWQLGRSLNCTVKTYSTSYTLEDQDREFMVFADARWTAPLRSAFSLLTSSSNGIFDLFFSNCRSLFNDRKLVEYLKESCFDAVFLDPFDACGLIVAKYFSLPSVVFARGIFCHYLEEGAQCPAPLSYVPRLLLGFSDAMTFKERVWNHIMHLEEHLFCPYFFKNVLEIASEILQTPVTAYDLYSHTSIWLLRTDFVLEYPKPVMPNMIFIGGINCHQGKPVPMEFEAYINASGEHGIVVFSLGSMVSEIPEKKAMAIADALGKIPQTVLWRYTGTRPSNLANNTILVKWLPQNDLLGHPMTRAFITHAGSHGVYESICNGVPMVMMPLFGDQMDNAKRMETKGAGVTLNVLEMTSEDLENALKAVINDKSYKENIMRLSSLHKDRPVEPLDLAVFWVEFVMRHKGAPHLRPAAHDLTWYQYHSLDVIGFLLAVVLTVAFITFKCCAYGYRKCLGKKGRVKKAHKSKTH
Description: (§1) Western blot analyses of UGT1A7 and UGT1A9 variants expressed in HEK293 cells were performed on microsomal proteins (10 μg) separated on a 10% SDS-polyacrylamide gel. After transferring the proteins, the membranes were probed with an anti-UGT1A RC-71 polyclonal antibody and with an anti-calnexin antibody. The relative levels of UGT1A9 (a) and UGT1A7 proteins (b) were determined by semi-quantitative densitometric analysis of the Enhanced chemiluminescence (ECL) image. The in vitro SN-38 activity was assessed using microsomal fractions prepared from HEK293 cells expressing the *1 and variant UGT1A9 (c) and UGT1A7 (d) alleles and incubated with 5 μM of SN-38 as described in Materials and Methods.
(§2) For the determination of Vmax and Km.

UGT1A7*3 = target: T2, UGT1A7*3 (Homo sapiens, UniProt Q9HAW7, N129K/R131K/W208R); test: SN-38 glucuronidation by microsomes of HEK293 cells expressing UGT1A7*3; parameters: key to Function (SN-38G formation versus *1 allele): High: no significant difference in activity compared to *1 allele.; Low: significantly lower SN-38G formation versus *1 allele
T2 construct: expressed in transfected cells
T2 sequence (Q9HAW7 26-530 N129K/R131K/W208R): T1 sequence (Q9HAW7 26-530) with N104K, R106K, W183R
Description: as §1, §2

UGT1A7*7 = target: T3, UGT1A7*7 (Homo sapiens, UniProt Q9HAW7, E139D/N129K/R131K); test: SN-38 glucuronidation by microsomes of HEK293 cells expressing UGT1A7*7; parameters: key to Function (SN-38G formation versus *1 allele): High: no significant difference in activity compared to *1 allele.; Low: significantly lower SN-38G formation versus *1 allele
T3 construct: expressed in transfected cells
T3 sequence (Q9HAW7 26-530 N129K/R131K/E139D): T1 sequence (Q9HAW7 26-530) with N104K, R106K, E114D
Description: as §1, §2

human liver microsomes = test: SN-38 glucuronidation kinetics with commercially available human liver microsomes
Source text: as §2

CCc1c2c(nc3ccc(O)cc13)-c1cc3c(c(=O)n1C2)COC(=O)[C@]3(O)CC [SN-38, 7-ethyl-10-hydroxycamptothecin]
SN-38 glucuronidating activity of the allele (in words) (UGT1A7*1): highest
Function (SN-38G formation versus *1 allele) (UGT1A7*1; in vitro experiments): High
SN-38 glucuronidating activity of the allele (in words) (UGT1A7*3): low
Function (SN-38G formation versus *1 allele) (UGT1A7*3; in vitro experiments): Low
Function (SN-38G formation versus *1 allele) (UGT1A7*7; in vitro experiments): High
lower rates of SN-38G formation compared to UGT1A7*1 (UGT1A7*7; range given for *5, *7 and *8 together): 38-76%
Km (human liver microsomes; SN-38, LCQ detector): 6.8 ± 3 µM
Km (human liver microsomes; SN-38, fluorescent detection): 4.8 ± 0.8 µM

— patent US20060183119A1, “Method for determining predisposition to a physiological reaction in a patient” (UNIVERSITE LAVAL, priority 2002, published 2006)
